According to patent publication US20050106563A1 (Genesis Biotech Inc., priority 2003, published 2005):
Where no end group is shown, it is not given here.

Tests used:
[1] = system: chicken anti-avian infectious bronchitis virus (IBV) sera; assay type: binding
[2] = system: anti-SARS-CoV antibody in human sera; assay type: binding
anti-SARS-CoV sera IgG = assay type: binding, human
[3] = system: IgM specific to SARS-COV N1; assay type: binding, human
[4] = system: cat anti-feline coronavirus sera; assay type: binding

## (APATVCGPKL)8K4K2K-βA (also: octameric MAP on K4K2K lysine core with C-terminal βAla) [GA115]
[1]
  cross reaction with chicken anti-IBV antiserum: cross reacted only but weakly

## (ASLPYGANKE)8K4K2K-βA (also: octameric MAP on K4K2K lysine core with C-terminal βAla) [GA146]
[2]
  serum binding during treatment versus recovery period (inflammation epitopes): more strongly during the treatment than during the recovery period

## (ASVVNIQKEI)8K4K2K-βA (also: octameric MAP on K4K2K lysine core with C-terminal βAla) [GA291]
anti-SARS-CoV sera IgG
  time dependency of antibody binding (time dependent epitopes): immediate early (days 1-6)

## (DHIGTRNPNN)8K4K2K-βA (also: octameric MAP on K4K2K lysine core with C-terminal βAla) [GA151]
[2]
  Responder (AT>1, positive)/Total samples (R/T): 10/10
  Responder/Total samples (R/T) value: 0
  share of group 2 regarded as probable SARS patients (17 of 23 cases): 74%
anti-SARS-CoV sera IgG
  detection of SARS-COV antibody (IgG) in patient #51: can be detected
  time dependency of antibody binding (time dependent epitopes): immediate early (days 1-6)
[3]
  detection of SARS-COV antibody (IgM) in patient #51: can be detected
[1]
  cross reaction with chicken anti-IBV antiserum: did not cross react
[4]
  AbT: 2.9
  response ratio R/T: 1/8

## (FFGMSRIGME)8K4K2K-βA (also: octameric MAP on K4K2K lysine core with C-terminal βAla) [GA158]
[2]
  serum binding during treatment versus recovery period (inflammation epitopes): more strongly during the treatment than during the recovery period
[1]
  response ratio R/T: 3/3
[4]
  response ratio R/T: 8/8

## (GANKEGIVWV)8K4K2K-βA (also: octameric MAP on K4K2K lysine core with C-terminal βAla) [GA147]
[2]
  serum binding during treatment versus recovery period (inflammation epitopes): more strongly during the treatment than during the recovery period
[1]
  response ratio R/T: 1/3

## (GKMKELSPRW)8K4K2K-βA (also: octameric MAP on K4K2K lysine core with C-terminal βAla) [GA142]
[2]
  serum binding during treatment versus recovery period (inflammation epitopes): more strongly during the treatment than during the recovery period

## (GNCDVVIGII)8K4K2K-βA (also: octameric MAP: 8 copies on K4K2K lysine core with C-terminal βAla) [GA134]
[2]
  serum binding during treatment versus recovery period (inflammation epitopes): more strongly during the treatment than during the recovery period

## (GSITAQPVKI)8K4K2K-βA (also: octameric MAP: 8 copies on K4K2K lysine core with C-terminal βAla) [GA186]
[1]
  cross reaction with chicken anti-IBV antiserum: cross reacted only but weakly

## (GTSWFITQRN)8K4K2K-βA (also: octameric MAP: 8 copies on K4K2K lysine core with C-terminal βAla) [GA129]
[4]
  AbT: > 1
  response ratio R/T: 5/6

## (HGAIKLDDKD)8K4K2K-βA (also: octameric MAP: 8 copies on K4K2K lysine core with C-terminal βAla) [GA162]
anti-SARS-CoV sera IgG
  time dependency of antibody binding (time dependent epitopes): early (days 7-29)

## (IAQFAPSASA)8K4K2K-βA (also: octameric MAP: 8 copies on K4K2K lysine core with C-terminal βAla) [GA156]
[2]
  serum binding during treatment versus recovery period (inflammation epitopes): more strongly during the treatment than during the recovery period

## (IGYYRRATRR)8K4K2K-βA (also: octameric MAP: 8 copies on K4K2K lysine core with C-terminal βAla) [GA139]
[2]
  serum binding during treatment versus recovery period (inflammation epitopes): more strongly during the treatment than during the recovery period

## (IITTDNTFVS)8K4K2K-βA (also: octameric MAP: 8 copies on K4K2K lysine core with C-terminal βAla) [GA132]
[2]
  serum binding during treatment versus recovery period (inflammation epitopes): more strongly during the treatment than during the recovery period

## (INTNSGPDDQ)8K4K2K-βA (also: octameric MAP: 8 copies on K4K2K lysine core with C-terminal βAla) [GA137]
[2]
  serum binding during treatment versus recovery period (inflammation epitopes): more strongly during the treatment than during the recovery period

## (KHWPQIAQFA)8K4K2K-βA (also: octameric MAP: 8 copies on K4K2K lysine core with C-terminal βAla) [GA155]
[2]
  serum binding during treatment versus recovery period (inflammation epitopes): more strongly during the treatment than during the recovery period
[1]
  response ratio R/T: 2/3
[4]
  response ratio R/T: 8/8

## (KKTDEAQPLP)8K4K2K-βA (also: octameric MAP: 8 copies on K4K2K lysine core with C-terminal βAla) [GA170]
[2]
  Responder (AT>1, positive)/Total samples (R/T): 10/10
  Responder/Total samples (R/T) value: 0
  share of group 2 regarded as probable SARS patients (17 of 23 cases): 74%
anti-SARS-CoV sera IgG
  detection of SARS-COV antibody (IgG) in patient #51: can be detected
  time dependency of antibody binding (time dependent epitopes): immediate early (days 1-6)
[1]
  cross reaction with chicken anti-IBV antiserum: cross reacted only but weakly
[4]
  response ratio R/T: 0/8

## (KYFKNHTSPD)8K4K2K-βA (also: octameric MAP: 8 copies on K4K2K lysine core with C-terminal βAla) [GA287]
anti-SARS-CoV sera IgG
  time dependency of antibody binding (time dependent epitopes): immediate early (days 1-6)

## (LQLPQGTTLP)8K4K2K-βA (also: octameric MAP: 8 copies on K4K2K lysine core with C-terminal βAla) [GA154]
[3]
  detection of SARS-COV antibody (IgM) in patient #51: can be detected

## (LRIPVTAEVGSSYFK)8K4K2K-βA (also: octameric MAP: 8 copies on K4K2K lysine core with C-terminal βAla) [GA6, control polypeptide, WSSV VP28 52-66]
[1]
  response ratio R/T: 1/3
[4]
  response ratio R/T: 8/8

## (LSPRWYFYYL)8K4K2K-βA (also: octameric MAP: 8 copies on K4K2K lysine core with C-terminal βAla) [GA143]
[2]
  serum binding during treatment versus recovery period (inflammation epitopes): more strongly during the treatment than during the recovery period

## (NAATVLQLPQ)8K4K2K-βA (also: octameric MAP: 8 copies on K4K2K lysine core with C-terminal βAla) [GA153]
[3]
  detection of SARS-COV antibody (IgM) in patient #51: can be detected

## (PPTEPKKDKK)8K4K2K-βA (also: octameric MAP: 8 copies on K4K2K lysine core with C-terminal βAla) [GA168]
anti-SARS-CoV sera IgG
  detection of SARS-COV antibody (IgG) in patient #51: can be detected
  time dependency of antibody binding (time dependent epitopes): immediate early (days 1-6)

## (QPTVTLLPAA)8K4K2K-βA (also: octameric MAP: 8 copies on K4K2K lysine core with C-terminal βAla) [GA173]
[1]
  cross reaction with chicken anti-IBV antiserum: cross reacted only but weakly

## (QRQKKQPTVT)8K4K2K-βA (also: octameric MAP: 8 copies on K4K2K lysine core with C-terminal βAla) [GA172]
[1]
  response ratio R/T: 3/3
[4]
  response ratio R/T: 8/8

## (RINWVTGGIA)8K4K2K-βA (also: octameric MAP: 8 copies on K4K2K lysine core with C-terminal βAla) [GA179]
[2]
  serum binding during treatment versus recovery period (inflammation epitopes): more strongly during the treatment than during the recovery period
[1]
  response ratio R/T: 3/3
[4]
  response ratio R/T: 7/8

## (RNPNNNAATV)8K4K2K-βA (also: octameric MAP: 8 copies on K4K2K lysine core with C-terminal βAla) [GA152]
[2]
  Responder (AT>1, positive)/Total samples (R/T): 10/10
  Responder/Total samples (R/T) value: 0
  share of group 2 regarded as probable SARS patients (17 of 23 cases): 74%
anti-SARS-CoV sera IgG
  detection of SARS-COV antibody (IgG) in patient #51: can be detected
  time dependency of antibody binding (time dependent epitopes): immediate early (days 1-6)
[3]
  detection of SARS-COV antibody (IgM) in patient #51: can be detected
[1]
  cross reaction with chicken anti-IBV antiserum: did not cross react
[4]
  response ratio R/T: 0/8

## (RVDFCGKGYH)8K4K2K-βA (also: octameric MAP: 8 copies on K4K2K lysine core with C-terminal βAla) [GA117]
[2]
  serum binding during treatment versus recovery period (inflammation epitopes): more strongly during the treatment than during the recovery period
[1]
  response ratio R/T: 1/3
[4]
  response ratio R/T: 6/8

## (RYLRHGKLRP)8K4K2K-βA (also: octameric MAP: 8 copies on K4K2K lysine core with C-terminal βAla) [GA102]
[2]
  serum binding during treatment versus recovery period (inflammation epitopes): more strongly during the treatment than during the recovery period
[1]
  response ratio R/T: 2/3
[4]
  response ratio R/T: 8/8

## (YNYKYRYLRH)8K4K2K-βA (also: octameric MAP: 8 copies on K4K2K lysine core with C-terminal βAla) [GA101]
[2]
  serum binding during treatment versus recovery period (inflammation epitopes): more strongly during the treatment than during the recovery period
[1]
  response ratio R/T: 3/3
[4]
  response ratio R/T: 8/8

## FVASFRLFAR (SARS Coronavirus) [GA203]
anti-SARS-CoV sera IgG
  detection of SARS-COV antibody (IgG) in patient #51: can be detected
  time dependency of antibody binding (time dependent epitopes): immediate early (days 1-6)

## LLACLCKHKK (SARS Coronavirus) [GA231]
[2]
  serum binding during treatment versus recovery period (inflammation epitopes): more strongly during the treatment than during the recovery period
anti-SARS-CoV sera IgG
  detection of SARS-COV antibody (IgG) in patient #51: can be detected
  time dependency of antibody binding (time dependent epitopes): immediate early (days 1-6)

## MSRRRLLACL (SARS Coronavirus) [GA230]
anti-SARS-CoV sera IgG
  detection of SARS-COV antibody (IgG) in patient #51: can be detected
  time dependency of antibody binding (time dependent epitopes): immediate early (days 1-6)

## NYKYRYLRHGKLRPFERDISNVPFS [GA91]
[4]
  response ratio R/T: 6/8
